{"source": "patent US20090269309A1", "about": "“Retinoic acid stimulates differentiation of pancreatic progenitor cells into insulin producing cells” (priority 2004, published 2009)", "system": "mouse embryonic day (e) 10 dorsal pancreatic buds", "experiment": "Culture of e10 dorsal pancreatic bud explants with or without RA, endocrine cells scored by immunohistochemistry", "format": "cell-based", "excerpt": "From mating between C57BL/6 (wild-type) mice, pregnant females were sacrificed ten days after the appearance of a vaginal plug, and embryos collected. The ten-day-old embryos were dissected in L15 medium (Gibco) using forceps and tungsten needles. The L15 medium is […]\nAt this embryonic stage the dorsal pancreatic bud can be seen as a round structure forming from the gut endoderm that can be dissected out from the surrounding tissues (see FIG. 3). Using a mouth pipette individual isolated pancreatic buds were placed on 0.4 μm, pore 3,28 12 mm Millicell-CM PICM01250 filters (Millipore) that were subsequently placed in a twenty-four well plate (Costar) where each well contained 400 μl culture medium, consisting of DMEM-glutamax1 (Gibco), 1×N2-supplement (Gibco) and PEST (Gibco).\nThe explants were cultured for six days in 37° C. and 5% CO2 in culture medium alone (control explants) or with 25 nM all-trans retinoic acid (Sigma) added to the medium.\nAfter six days of culture the explants were washed twice in PBS, fixated in 4% PFA in PBS for 25 minutes followed by two more washes in PBS. Using a small pair of scissors the filter was cut around the explant and the filter piece with the explant attached to it was placed in Tissue Tek O.C.T. Compound 4583 (Sakura). In the Tissue Tek the explant was gently removed from the filter using tungsten needles. A small drop of Tissue Tek was applied on a glass slide (Menzel) and the explant was placed in the drop using forceps and tungsten needles. The glass slides were put on dry ice to freeze the drops and were then stored in −80° C.\nThe frozen explants were sectioned using a Cryostat into […] thick sections that were collected on Superfrost Plus glass slides (Menzel). All explants from one experiment were put on the same slides. The slides were placed in a hybridisation chamber and blocked with blocking solution, TBST (50 mMT nsHCl, pH7.4, 150 mM MaCl, 0,1% Triton X-100)+10% FCS (fetal calf serum), for one hour. After blocking, primary antibodies diluted in fresh blocking solution were added and the slides were incubated overnight at 4° C. The following primary antibodies were used: guinea-pig α insulin (Linco) diluted 1/200, rabbit α glucagon (Euro Diagnostica) diluted 1/1000 and rabbit anti-ngn3 (raised against a GST-ngn3 fusion protein by AgriSeraAB) diluted 1/400. The slides were washed 3×5 minutes in TBST before incubation with secondary antibodies; a guinea-pig alexa488 (Molecular Probes) diluted 1/1000 and α rabbitCy3 (Jackson) diluted 1/400, for one hour in room temperature. The slides were then washed again 3×5 minutes in TBST before they were mounted using Vectashield with DAPI (Vector). The slides were analysed using a Nikon fluorescence microscope. The cells stained for insulin and glucagos respectively were counted and divided by the total number of cells that was counted using the DAPI staining which stains DNA i.e. every cell nucleus.\nTo investigate a role for RA in pancreatic cell differentiation mouse embryonic day (e) 10 dorsal pancreatic buds, which primarily contain pancreatic stem cells and very few differentiated pancreatic cells, were cultured in serum free media with or without RA for six days. The in vitro cultured explants were then scored for the appearance of endocrine cells expressing glucagon and insulin by immunohistochemistry using antibodies specific for glucagon and insulin. In vitro cultivation in media alone generated a few glucagon-(˜10% of total cells) and insulin-positive (˜5% of total cells) cells but the majority of cells were of non-endocrine origin (FIGS. 1 A-C and data not shown). […] Moreover, RA preferentially stimulated the differentiation of insulin-positive cells, which increased ˜4.5 fold, whereas glucagon-positive cells increased only ˜1,5 fold (FIG. 1D-F).", "note": "Values joined by “and” are separate entries in the source; they are usually repeats but may differ in a detail not shown here. Equal entries are not always repeated.", "data": [{"smiles": "CC1=C(/C=C/C(C)=C/C=C/C(C)=C/C(=O)O)C(C)(C)CCC1", "note": "[RA, all-trans retinoic acid]", "values": [{"measurement": "increase in the number of ngn3-positive cells/total number of cells", "setting": "25 nM RA, 2 and 4 days of culture, versus medium alone", "value": "five-fold increase"}, {"measurement": "effect on the number of glucagon cells", "setting": "25 nM RA, versus medium alone, N=6", "value": "No significant effect"}, {"measurement": "increase in the number of insulin positive cells/total number of cells", "setting": "25 nM all-trans RA, six days of culture, versus explants in medium alone", "value": "> 3 fold and ~4.5 fold"}, {"measurement": "increase in endocrine cells", "setting": "25 nM all-trans RA, six days, versus explants cultured in media alone", "value": "more than 2 fold"}, {"measurement": "increase in glucagon-positive cells", "setting": "25 nM all-trans RA, six days, versus media alone", "value": "~1,5 fold"}, {"measurement": "endocrine cells (glucagon- and insulin-positive) of total cells", "setting": "25 nM all-trans RA, six days, media alone ~15%", "value": "~37", "unit": "%"}]}]}
